In brackets after ≈: the same amount, converted by molar mass.
How the values were obtained:
Type in all cases: cell-based
[1] = system: Escherichia coli (carbapenem-resistant clinical isolate; ATCC25922); assay: MIC by micro broth dilution (CLSI), Escherichia coli; conditions: Escherichia coli; for MIC50 / MIC90: ATCC25922, Clinical strain; for MIC50: read-out: MIC50; for MIC90: read-out: MIC90; for MIC: Standard strain ATCC25922, read-out: MIC
From the text: (§1) The test bacteria were one strain of clinically isolated carbapenem-resistant Escherichia coli, two strains of carbapenem-resistant Acinetobacter baumannii, two strains of methicillin-resistant Staphylococcus aureus, two strains of sensitive Staphylococcus aureus, and 7 strains of Klebsiella pneumoniae. Duplicate strains isolated from the same patient were eliminated. There were also […] quality control strains Escherichia coli ATCC25922, Acinetobacter baumannii ATCC19606, Staphylococcus aureus ATCC29213, Klebsiella pneumoniae ATCC BAA-1705, ATCC 43816, ATCC BAA-2472, ATCC-BAA-1898, ATCC-BAA-1899, NCTC 13440 and ATCC-BAA-2470. There were 24 strains in total.
(§2) According to the recommendations of relevant documents of the American Clinical and Laboratory Standards Institute (CLSI), the micro broth dilution method was used to determine the MIC of the compounds of the present invention against clinically isolated strains. • 3.1 Formulation of antibacterial drug: All the compounds of the present invention were dissolved in DMSO. The drug concentration range was 128 mg/L to 0.06 mg/L. • 3.2 Culture medium: The drug susceptibility test used cation adjusted Mueller-Hinton broth (CAMHB). • 3.3 Amount of inoculum: The test bacteria cultured overnight were adjusted to 0.5 McFarland turbidity by the direct colony suspension method, and diluted 100 folds, the final inoculum amount was 10^5 CFU/mL. • 3.4 Culture conditions: The test bacteria were cultured at 35±2° C. for 20 hours in air.
(§3) The drug susceptibility test results were interpretated by reference to CLSI 2019 M100 29th edition criteria.
(§4) The quality control strains of the drug susceptibility test were Escherichia coli ATCC 25922, Acinetobacter baumannii ATCC 19606, Staphylococcus aureus ATCC 29213, Klebsiella pneumoniae ATCC BAA-1705, ATCC 43816, ATCC BAA-2472, ATCC-BAA-1898, ATCC-BAA-1899, NCTC 13440 and ATCC-BAA-2470.
(§5) The results of drug susceptibility test were statistically analyzed by WHONET software (version 5.6).

[2] = system: Acinetobacter baumannii (carbapenem-resistant clinical isolates; ATCC19606); assay: MIC by micro broth dilution (CLSI), Acinetobacter baumannii; conditions: Acinetobacter baumannii; for MIC50 / MIC90: ATCC19606, Clinical strain; for MIC50: read-out: MIC50; for MIC90: read-out: MIC90; for MIC: Standard strain ATCC19606, read-out: MIC
From the text: as §1, §2, §3, §4, §5

[3] = system: Staphylococcus aureus (methicillin-resistant and sensitive clinical isolates; ATCC29213); assay: MIC by micro broth dilution (CLSI), Staphylococcus aureus; conditions: for MIC50 / MIC90: Clinical strain; for MIC50: read-out: MIC50; for MIC90: read-out: MIC90; for MIC: Standard strain ATCC29213, read-out: MIC
From the text: as §1, §2, §3, §4, §5

Row | SMILES | MIC50 [1] | MIC90 [1] | MIC [1] | MIC50 [2] | MIC90 [2] | MIC [2] | MIC50 [3] | MIC90 [3] | MIC [3]
1 | O=[N+]([O-])c1ccc2c(CN3CCOCC3)ccnc2c1O [Example 89, 4-(morpholinomethyl)-7-nitroquinolin-8-ol] | > 128 µg/mL | > 128 µg/mL | > 128 µg/mL | 128 µg/mL (≈ 442 µM) | 128 µg/mL (≈ 442 µM) | 128 µg/mL (≈ 442 µM) | 64 µg/mL (≈ 221 µM) | 64 µg/mL (≈ 221 µM) | 64 µg/mL (≈ 221 µM)
2 | O=[N+]([O-])c1cc(CN2CCCCC2)c2cccnc2c1O [Example 91, 7-nitro-5-(piperidin-1-ylmethyl)quinolin-8-ol acetate] | > 128 µg/mL | > 128 µg/mL | 128 µg/mL | > 128 µg/mL | > 128 µg/mL | 128 µg/mL | > 128 µg/mL | > 128 µg/mL | > 128 µg/mL
3 | O=[N+]([O-])c1cc(Cl)c2cc(CN3CCCCC3)cnc2c1O [Example 92, 5-chloro-7-nitro-3-(piperidin-1-ylmethyl)quinolin-8-ol] | > 128 µg/mL | > 128 µg/mL | 64 µg/mL (≈ 199 µM) | 32 µg/mL (≈ 99.5 µM) | 128 µg/mL (≈ 398 µM) | 32 µg/mL (≈ 99.5 µM) | 16 µg/mL (≈ 49.7 µM) | 16 µg/mL (≈ 49.7 µM) | 16 µg/mL (≈ 49.7 µM)
4 | O=[N+]([O-])c1cc(CN2CCCC2)c2cccnc2c1O [Example 93, 7-nitro-5-(pyrrolidin-1-ylmethyl)quinolin-8-ol acetate] | > 128 µg/mL | > 128 µg/mL | > 128 µg/mL | > 128 µg/mL | > 128 µg/mL | > 128 µg/mL | > 128 µg/mL | > 128 µg/mL | > 128 µg/mL
5 | O=C(O)C(F)(F)F.O=[N+]([O-])c1cc(C(F)F)c2cccnc2c1O [Example 108, 5-(difluoromethyl)-7-nitroquinolin-8-ol trifluoroacetate] | > 128 µg/mL | > 128 µg/mL | > 128 µg/mL | – | – | – | > 128 µg/mL | > 128 µg/mL | 128 µg/mL

The remaining compounds from weak to strong by MIC50 [1], led by results:

Row | MIC50 [1] | MIC90 [1] | MIC [1] | MIC50 [2] | MIC90 [2] | MIC [2] | MIC50 [3] | MIC90 [3] | MIC [3] | SMILES
6 | 128 µg/mL (≈ 465 µM) | 128 µg/mL (≈ 465 µM) | 64 µg/mL (≈ 232 µM) | 64 µg/mL (≈ 232 µM) | > 128 µg/mL | 128 µg/mL (≈ 465 µM) | > 128 µg/mL | > 128 µg/mL | > 128 µg/mL | CCN(CC)Cc1cc([N+](=O)[O-])c(O)c2ncccc12 [Example 94, 5-((diethylamino)methyl)-7-nitroquinolin-8-ol]
7 | 128 µg/mL (≈ 468 µM) | > 128 µg/mL | 128 µg/mL (≈ 468 µM) | – | – | – | 128 µg/mL (≈ 468 µM) | 128 µg/mL (≈ 468 µM) | 128 µg/mL (≈ 468 µM) | O=[N+]([O-])c1ccc2c(C3CCNCC3)ccnc2c1O [Example 105, 7-nitro-4-(piperidin-4-yl)quinolin-8-ol]
8 | 64 µg/mL | > 128 µg/mL | 64 µg/mL | 32 µg/mL | 128 µg/mL | 32 µg/mL | 32 µg/mL | 32 µg/mL | 32 µg/mL | CCN(CC)Cc1cnc2c(O)c([N+](=O)[O-])cc(Cl)c2c1.O=C(O)C(F)(F)F.O=C(O)C(F)(F)F [Example 90, 5-chloro-3-((diethylamino)methyl)-7-nitroquinolin-8-ol ditrifluoroacetate]
9 | 64 µg/mL (≈ 223 µM) | 64 µg/mL (≈ 223 µM) | 64 µg/mL (≈ 223 µM) | 64 µg/mL (≈ 223 µM) | 64 µg/mL (≈ 223 µM) | 32 µg/mL (≈ 111 µM) | 64 µg/mL (≈ 223 µM) | 64 µg/mL (≈ 223 µM) | 64 µg/mL (≈ 223 µM) | O=[N+]([O-])c1ccc2cc(CN3CCCCC3)cnc2c1O [Example 95, 7-nitro-3-(piperidin-1-ylmethyl)quinolin-8-ol]
10 | 64 µg/mL (≈ 268 µM) | 128 µg/mL (≈ 536 µM) | 32 µg/mL (≈ 134 µM) | – | – | – | 4 µg/mL (≈ 16.8 µM) | 8 µg/mL (≈ 33.5 µM) | 8 µg/mL (≈ 33.5 µM) | Cc1c([N+](=O)[O-])c(O)c2ncccc2c1Cl [Example 107, 5-chloro-6-methyl-7-nitroquinolin-8-ol]
11 | 32 µg/mL (≈ 145 µM) | 64 µg/mL (≈ 291 µM) | 64 µg/mL (≈ 291 µM) | – | – | – | 128 µg/mL (≈ 581 µM) | 128 µg/mL (≈ 581 µM) | 64 µg/mL (≈ 291 µM) | O=[N+]([O-])c1cc(CO)c2cccnc2c1O [Example 109, 5-(hydroxymethyl)-7-nitroquinolin-8-ol]
12 | 8 µg/mL (≈ 38.4 µM) | 128 µg/mL (≈ 615 µM) | 16 µg/mL (≈ 76.9 µM) | – | – | – | 16 µg/mL (≈ 76.9 µM) | 16 µg/mL (≈ 76.9 µM) | 16 µg/mL (≈ 76.9 µM) | O=[N+]([O-])c1cc(F)c2cccnc2c1O [Example 106, 5-fluoro-7-nitroquinolin-8-ol]
